The numbers were not newly measured in patent US20230393151A1, “Precision Targeted Retromer Therapeutics for the Treatment of Neurodegenerative Diseases and Disorders” (The Trustees of Columbia University in the City of New York, priority 2020, published 2023), which cites them from elsewhere.

The target of one data set is T1, VPS35 and VPS26 (Mus musculus, UniProt Q9EQH3+Q9QZ88).
T1 construct: endogenous in cells
The settings on record: cultured primary neurons; Mecozzi et al. 2014.

Data set [1] addresses purified, reconstituted heterotrimeric complex (retromer) (Homo sapiens, UniProt Q96QK1+Q9UBQ0). The settings on record: incubated with complex at various concentrations; Mecozzi et al. 2014.

With `[H]/N=C(\N)SCc1ccc(CS/C(N)=N/[H])s1` [R55], the “VPS35 and VPS26 protein levels” value on VPS35 and VPS26 is reported as “increased”. Also, in data set [1], the “Thermal stability of retromer complex” value is recorded as “improved thermal stability significantly”.
